Experimental data: US11952334B2, “Cocrystals of ubiquinone and compositions comprising them” (CENTER FOR INTELLIGENT RESEARCH IN CRYSTAL ENGINEERING, S.L., priority 2018, dated 2024)

Experiments:
[1] = Particle size analysis (granulometry) by laser dispersion; type: physicochemical; details: dispersing fluid silicone oil
Experimental: Particle size can be determined, for example by laser dispersion on a Beckman Coulter LS13320 provided with a MLM (Micro Liquid Module) (measure range: 0.4 to 2000 μm; optic model: Fraunhofer.rdf, PIDS included).
Particle size analysis (granulometry) was performed by laser dispersion on a Beckman Coulter LS13320 provided with a MLM (Micro Liquid Module) (measure range: 0.4 to 2000 μm; optic model: Fraunhofer.rdf, PIDS included).
In a beaker about 10 ml of silicone oil and a microspoon of sample were placed. The sample was homogeneized by pipetting it repeatedly with a pasteurized pipette and by subjecting it to ultrasonic treatment (30 KHz; 200 W). The module was cleaned and filled with silicone oil as a dispersing fluid. Before each analysis, an optical alignment of the laser and a measure of the instrument noise was made.

[2] = Dissolution rate of ubiquinone vs cocrystals in FaSSIF-v2 medium (small-scale dissolution assay); type: physicochemical; details: for Dissolution rate compared with ubiquinone (in words): FaSSIF-v2 medium pH 6.50, 25° C.; for Dissolution rate: tablet 8 mm, exposed surface 0.5 cm^2, FaSSIF-v2 medium pH 6.50, 25° C., Noyes-Whitney fit
Experimental: 1. Dissolution Rate Experiments • Tablet production: tablets of 8 mm diameter were made using a manual hydraulic tablet press (Applied Measurements Ltd, UK) up to a compression weight of 70 Kg. 40-50 mg of compound, ubiquinone or co-crystal, were weighted. The total exposed surface area was 0.5 cm^2. • Medium: aqueous solution containing 106 mM sodium chloride, 28.4 mM monobasic sodium phosphate, and 8.7 mM sodium hydroxide, adjusted with sodium hydroxide to pH 6.50. • Dissolution tests were performed with a small-scale dissolution assay installed in a GlpKa™ titrator (Sirius Analytical Instruments, UK). • Dissolution time and temperature: 2 hours and 25° C. • Procedure: 15 mL of aqueous medium was added into the sample vial containing the tablet. Spectra were recorded every 30 seconds for 1 hour through Sirius D-PAS spectrometer, with a bifurcated optic fibre dip probe (Hellma Analytics). The medium was stirred at a constant rate.
2. HPLC-MS/MS Quantification • HPLC conditions: • Instrument: Agilent HPLC, consisting on two pumps, oven, and an autoinjector. • Column: Teknokroma C8, 150×4.6 mm, 5 μm. • Mobile phase: 5 mM ammonium formate in methanol:isopropanol (90:10). • Elution mode: isocratic. • Column temperature: 35° C. • Flow rate: 1 mL/min. • Injection volume: […]. • Retention time of ubiquinone: 8.5 min. • MS conditions: • Instrument: Linear Ion Trap Quadrupole LC/MS/MS Mass Spectrometer 6500 Q TRAP (AB SCIEX Instruments). • Curtain Gas: 25 p.s.i. • Source temperature: 400° C. • Ion Source Gas 1: 50 p.s.i. • Ion Source Gas 2: 50 p.s.i. • Ion Spray Voltage: 5500 V. • Mode: positive ionization. • Scan mode: MRM. • Transitions for ubiquinone: • Quantification: 880.8 (Q1)—197.1 (Q3); DP=100, CE=25; Dwell time=1000 ms • Confirmation: 880.8 (Q1)—149.3 (Q3); DP=90, CE=45; Dwell time=1000 ms.
Dissolution rates of the cocrystals were determined by monitoring the dissolution profile of the different coformers. Molar extinction coefficients (MEC) of the coformers were measured in water, assuming that they would be nearly identical in FaSSIF aqueous solution.
Dissolution rate of ubiquinone was determined spectrophotometrically. However, as MEC of ubiquinone couldn't be determined in water due to the low solubility of the compound in this medium, concentration of ubiquinone in the dissolution profile was determined by HPLC-MS/MS.
Noyes-Whitney first order exponential equation was fitted to experimental points, providing the dissolution rate values shown in Table 11 below.

Molecule	D10 [1] [μm]	D50 [1] [μm]	D90 [1] [μm]	Mean particle size [1] [μm]	Mode particle size [1] [μm]	Percentage of particles between 9.82 μm and 57.8 μm [1] [%]	Dissolution rate compared with ubiquinone (in words) [2]	Dissolution rate [2] [µg/min]
COC1=C(OC)C(=O)C(C/C=C(\C)CC/C=C(\C)CC/C=C(\C)CC/C=C(\C)CC/C=C(\C)CC/C=C(\C)CC/C=C(\C)CC/C=C(\C)CC/C=C(\C)CCC=C(C)C)=C(C)C1=O.COC1=C(OC)C(=O)C(C/C=C(\C)CC/C=C(\C)CC/C=C(\C)CC/C=C(\C)CC/C=C(\C)CC/C=C(\C)CC/C=C(\C)CC/C=C(\C)CC/C=C(\C)CCC=C(C)C)=C(C)C1=O.Oc1ccc(O)cc1 [Compound P57-VI, Ubiquinone:hydroquinone (2:1)]	1.69	17.0	34.6	17.2	31.5	58.3	–	–
COC1=C(OC)C(=O)C(C/C=C(\C)CC/C=C(\C)CC/C=C(\C)CC/C=C(\C)CC/C=C(\C)CC/C=C(\C)CC/C=C(\C)CC/C=C(\C)CC/C=C(\C)CCC=C(C)C)=C(C)C1=O.O=C(O)c1ccc(O)cc1 [Compound P57-III, Ubiquinone:4-hydroxybenzoic acid cocrystal (1:1)]	2.51	18.2	36.1	19.0	34.6	70.5	highest dissolution rate	56 ± 8
COC1=C(OC)C(=O)C(C/C=C(\C)CC/C=C(\C)CC/C=C(\C)CC/C=C(\C)CC/C=C(\C)CC/C=C(\C)CC/C=C(\C)CC/C=C(\C)CC/C=C(\C)CCC=C(C)C)=C(C)C1=O [Compound P57, ubiquinone]	5.19	28.4	41.7	26.0	38.0	83.1	–	0.0012 ± 0.0007

Continued, values first:

D10 [1] [μm]	D50 [1] [μm]	D90 [1] [μm]	Mean particle size [1] [μm]	Mode particle size [1] [μm]	Percentage of particles between 9.82 μm and 57.8 μm [1] [%]	Dissolution rate compared with ubiquinone (in words) [2]	Dissolution rate [2] [µg/min]	Molecule
9.46	22.2	34.0	22.0	31.5	88.9	–	3.5 ± 0.4	COC1=C(OC)C(=O)C(C/C=C(\C)CC/C=C(\C)CC/C=C(\C)CC/C=C(\C)CC/C=C(\C)CC/C=C(\C)CC/C=C(\C)CC/C=C(\C)CC/C=C(\C)CCC=C(C)C)=C(C)C1=O.COC1=C(OC)C(=O)C(C/C=C(\C)CC/C=C(\C)CC/C=C(\C)CC/C=C(\C)CC/C=C(\C)CC/C=C(\C)CC/C=C(\C)CC/C=C(\C)CC/C=C(\C)CCC=C(C)C)=C(C)C1=O.O.Oc1cc(O)cc(O)c1 [Compound P57-VIII, Ubiquinone:phloroglucinol monohydrate cocrystal (2:1:1)]
–	–	–	14.5	31.5	52.9	–	5.7 ± 0.8	Ubiquinone:resorcinol cocrystal (2:1) [Compound P57-V]
2.09	23.5	35.5	20.9	31.5	75.5	highest dissolution rate	106 ± 23	COC1=C(OC)C(=O)C(C/C=C(\C)CC/C=C(\C)CC/C=C(\C)CC/C=C(\C)CC/C=C(\C)CC/C=C(\C)CC/C=C(\C)CC/C=C(\C)CC/C=C(\C)CCC=C(C)C)=C(C)C1=O.COC1=C(OC)C(=O)C(C/C=C(\C)CC/C=C(\C)CC/C=C(\C)CC/C=C(\C)CC/C=C(\C)CC/C=C(\C)CC/C=C(\C)CC/C=C(\C)CC/C=C(\C)CCC=C(C)C)=C(C)C1=O.Cc1cc(O)cc(O)c1.Cc1cc(O)cc(O)c1.Cc1cc(O)cc(O)c1 [Compound P57-VII, Ubiquinone:orcinol cocrystal (2:3)]
